Test results as given in US12180207B2 (ARRAY BIOPHARMA INC., priority 2018, dated 2024).

Legend:
[1] = target: dephosphorylated FGFR1 (SEQ ID NO: 1, amino acids 458 to 765) (Homo sapiens (Human), UniProt P11362); assay: FGFR enzyme binding assay (HTRF tracer displacement), FGFR1; conditions: 5 nM dephosphorylated FGFR1, average of multiple determinations if made
How it was run: (§1)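 Kinase and tracer were incubated with compound for 60 minutes at 22° C. Tracer displacement was then measured by HTRF, and results were expressed as POC with 1 μM control inhibitor defining full displacement.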

dephosphorylated FGFR2 = dephosphorylated FGFR2 (Homo sapiens (Human), UniProt P21802); assay: FGFR enzyme binding assay (HTRF tracer displacement), FGFR2; conditions: 5 nM dephosphorylated FGFR2, average of multiple determinations if made
How it was run: as §1

[2] = target: phosphorylated FGFR3 (SEQ ID NO: 5, amino acids 449 to 759) (Homo sapiens (Human), UniProt P22607); assay: FGFR enzyme binding assay (HTRF tracer displacement), FGFR3; conditions: 5 nM phosphorylated FGFR3, average of multiple determinations if made
How it was run: as §1

[3] = target: HEK-293 cells transfected with dox-inducible human wild type FGFR1 (Homo sapiens (Human), UniProt P11362); assay: FGFR1 pERK cell assay; type: cell-based; conditions: HEK-293 dox-inducible FGFR1, 1 hour compound, 100 ng/ml FGF-acidic; maximum concentration 5 μM
How it was run: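 In HEK-293 cells with dox-induced human wild-type FGFR1, compounds (1:3 dilutions, top 5 μM final) were applied 1 h at 37°C before 5 min stimulation with 100 ng/ml FGF-acidic. Phospho-ERK1/2 measured by MSD sandwich immunoassay; IC50 from 4-parameter fit of POC versus vehicle and control compound.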

[4] = target: T1, HEK-293 cells transfected with dox-inducible human wild type FGFR3 (Homo sapiens (Human), UniProt P22607); assay: FGFR3 pERK cell assay; type: cell-based; conditions: HEK-293 dox-inducible FGFR3, 1 hour compound, 100 ng/ml FGF-acidic; maximum concentration 5 μM
How it was run: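 Doxycycline-induced cells preincubated 1 h at 37 °C with compound (1:3 dilutions, top 5 μM final), then stimulated 5 min with 100 ng/ml FGF-acidic. Lysate phospho-ERK1/2 measured by MSD sandwich assay; IC50 at 50 POC from 4-parameter fit, normalised to no-compound and control-compound wells.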

[5] = target: T1, HEK-293 cells transfected with dox-inducible human wild type FGFR3; assay: FGFR3 pFGFR cell assay (ELISA); type: cell-based; conditions: HEK-293 dox-inducible FGFR3, 1 hour compound, 100 ng/ml FGF-acidic
How it was run: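 Doxycycline-induced (1 μg/ml) HEK-293 cells expressing wild-type human FGFR3, treated 1 h with compound (1:3 series, top final 5 μM), then stimulated 5 min with 100 ng/ml FGF-acidic. Phospho-FGFR3 measured by ELISA (total FGFR3 capture, phosphotyrosine detection, OD 450 nm); IC50 from 4-parameter fit of POC values.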

Sequence of phosphorylated FGFR3 (SEQ ID NO: 5, amino acids 449 to 759) (P22607 449-759): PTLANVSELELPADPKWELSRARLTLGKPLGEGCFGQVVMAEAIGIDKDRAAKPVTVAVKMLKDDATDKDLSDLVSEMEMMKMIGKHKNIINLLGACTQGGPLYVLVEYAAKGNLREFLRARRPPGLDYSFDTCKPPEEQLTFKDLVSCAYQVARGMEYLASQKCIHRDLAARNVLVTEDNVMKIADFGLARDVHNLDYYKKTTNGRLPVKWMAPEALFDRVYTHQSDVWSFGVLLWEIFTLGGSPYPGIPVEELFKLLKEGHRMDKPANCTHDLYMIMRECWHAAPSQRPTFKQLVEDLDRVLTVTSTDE
Sequence of dephosphorylated FGFR1 (SEQ ID NO: 1, amino acids 458 to 765) (P11362 458-765): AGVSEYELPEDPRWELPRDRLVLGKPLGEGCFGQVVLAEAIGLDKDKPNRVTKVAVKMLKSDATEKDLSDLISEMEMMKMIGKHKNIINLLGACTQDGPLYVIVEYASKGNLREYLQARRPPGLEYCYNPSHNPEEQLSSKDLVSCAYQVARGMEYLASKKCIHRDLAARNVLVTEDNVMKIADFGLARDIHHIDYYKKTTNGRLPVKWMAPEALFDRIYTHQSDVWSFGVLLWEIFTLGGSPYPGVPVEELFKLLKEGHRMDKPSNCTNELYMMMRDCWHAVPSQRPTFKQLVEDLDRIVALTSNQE
Sequence of HEK-293 cells transfected with dox-inducible human wild type FGFR1 (P11362 22-822): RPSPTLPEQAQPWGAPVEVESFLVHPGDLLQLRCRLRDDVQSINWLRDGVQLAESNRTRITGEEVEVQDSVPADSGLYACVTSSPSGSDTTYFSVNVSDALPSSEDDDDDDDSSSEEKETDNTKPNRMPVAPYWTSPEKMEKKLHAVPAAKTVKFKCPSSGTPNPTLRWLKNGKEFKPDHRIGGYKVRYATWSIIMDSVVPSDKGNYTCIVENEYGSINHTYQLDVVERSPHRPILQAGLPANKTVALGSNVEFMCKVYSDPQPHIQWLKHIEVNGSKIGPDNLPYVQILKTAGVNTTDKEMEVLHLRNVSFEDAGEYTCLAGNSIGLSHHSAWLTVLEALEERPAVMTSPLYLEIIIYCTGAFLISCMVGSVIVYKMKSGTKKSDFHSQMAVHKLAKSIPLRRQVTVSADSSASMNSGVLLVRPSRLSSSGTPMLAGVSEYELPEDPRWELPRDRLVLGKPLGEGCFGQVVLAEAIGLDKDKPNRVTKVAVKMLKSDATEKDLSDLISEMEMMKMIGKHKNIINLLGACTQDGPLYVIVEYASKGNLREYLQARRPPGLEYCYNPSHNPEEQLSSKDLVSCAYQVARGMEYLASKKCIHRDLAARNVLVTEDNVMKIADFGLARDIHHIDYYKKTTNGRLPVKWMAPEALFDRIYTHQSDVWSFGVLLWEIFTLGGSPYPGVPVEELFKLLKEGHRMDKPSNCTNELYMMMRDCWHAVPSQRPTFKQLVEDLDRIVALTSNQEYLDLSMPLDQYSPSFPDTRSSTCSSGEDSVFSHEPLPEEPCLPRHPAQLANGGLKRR
Sequence of dephosphorylated FGFR2 (P21802 22-821): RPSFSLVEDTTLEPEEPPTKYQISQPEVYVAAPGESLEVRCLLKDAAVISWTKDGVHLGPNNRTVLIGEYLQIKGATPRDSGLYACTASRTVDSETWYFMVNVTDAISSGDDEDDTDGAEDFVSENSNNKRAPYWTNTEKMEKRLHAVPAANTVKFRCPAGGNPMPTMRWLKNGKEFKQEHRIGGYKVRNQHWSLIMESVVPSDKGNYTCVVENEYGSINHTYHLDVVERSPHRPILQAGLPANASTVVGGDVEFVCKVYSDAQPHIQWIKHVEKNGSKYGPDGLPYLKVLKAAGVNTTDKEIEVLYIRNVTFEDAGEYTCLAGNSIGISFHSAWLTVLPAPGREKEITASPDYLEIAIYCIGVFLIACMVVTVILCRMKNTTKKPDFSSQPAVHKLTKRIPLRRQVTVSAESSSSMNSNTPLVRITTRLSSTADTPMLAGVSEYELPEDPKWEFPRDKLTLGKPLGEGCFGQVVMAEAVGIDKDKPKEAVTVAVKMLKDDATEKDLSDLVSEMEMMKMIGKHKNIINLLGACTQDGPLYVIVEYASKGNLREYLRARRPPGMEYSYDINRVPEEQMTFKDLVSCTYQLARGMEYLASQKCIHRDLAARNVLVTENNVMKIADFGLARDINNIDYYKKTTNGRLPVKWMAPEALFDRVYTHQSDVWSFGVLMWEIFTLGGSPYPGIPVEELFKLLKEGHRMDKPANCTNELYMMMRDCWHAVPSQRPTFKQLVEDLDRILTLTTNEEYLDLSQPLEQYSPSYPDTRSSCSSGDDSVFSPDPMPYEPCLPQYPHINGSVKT
T1 sequence (P22607 23-806): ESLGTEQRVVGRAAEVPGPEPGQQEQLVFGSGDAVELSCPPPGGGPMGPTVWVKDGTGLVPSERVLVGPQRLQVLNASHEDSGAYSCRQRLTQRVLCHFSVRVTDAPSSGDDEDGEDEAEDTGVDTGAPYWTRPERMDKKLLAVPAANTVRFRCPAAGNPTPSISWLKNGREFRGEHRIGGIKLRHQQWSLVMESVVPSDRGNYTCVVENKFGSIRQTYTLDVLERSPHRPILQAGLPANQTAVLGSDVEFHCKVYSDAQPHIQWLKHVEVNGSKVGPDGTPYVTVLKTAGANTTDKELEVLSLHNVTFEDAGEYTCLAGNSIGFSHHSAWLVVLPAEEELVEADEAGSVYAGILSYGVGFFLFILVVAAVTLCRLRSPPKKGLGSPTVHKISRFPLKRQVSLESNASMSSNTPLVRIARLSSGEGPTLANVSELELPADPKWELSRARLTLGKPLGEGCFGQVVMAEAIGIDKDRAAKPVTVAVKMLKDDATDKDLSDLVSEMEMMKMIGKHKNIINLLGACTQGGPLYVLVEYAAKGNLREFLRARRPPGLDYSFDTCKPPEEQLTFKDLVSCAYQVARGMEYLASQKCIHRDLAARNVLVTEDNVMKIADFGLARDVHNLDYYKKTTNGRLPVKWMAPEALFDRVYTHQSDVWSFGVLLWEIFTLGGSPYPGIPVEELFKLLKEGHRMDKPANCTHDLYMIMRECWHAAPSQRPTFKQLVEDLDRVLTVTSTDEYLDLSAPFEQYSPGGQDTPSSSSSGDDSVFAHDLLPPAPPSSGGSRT

Row | IC50 [1] [nM] | IC50 (dephosphorylated FGFR2) [nM] | IC50 [2] [nM] | IC50 [3] [nM] | IC50 [4] [nM] | IC50 [5] [nM] | Structure (SMILES)
1 | 247 | 36 | 3 | 462 | 19 | 16 | C=CC(=O)N1CC(F)(C(=O)N2CCC(n3ncc(-c4cc(OC)c5c(C#N)cnn5c4)c3C)CC2)C1 [Example 85, 6-(1-(1-(1-acryloyl-3-fluoroazetidine-3-carbonyl)piperidin-4-yl)-5-methyl-1H-pyrazol-4-yl)-4-methoxypyrazolo[1,5-a]pyridine-3-carbonitrile]
2 | 420 | 17 | 14 | ≥ 5000 | 549 | 546 | C=CC(=O)N1CC[C@@H](C(=O)N2CCC(n3ncc(-c4cc(OC)c5c(C#N)cnn5c4)c3C)CC2)C1 [Example 83, (R)-6-(1-(1-(1-acryloylpyrrolidine-3-carbonyl)piperidin-4-yl)-5-methyl-1H-pyrazol-4-yl)-4-methoxypyrazolo[1,5-a]pyridine-3-carbonitrile]
3 | 777 | 21 | 22 | 2530 | 108 | 77 | C=CC(=O)N1CC(C(=O)N2CCC(n3ncc(-c4cc(OC)c5c(C#N)cnn5c4)c3C)CC2)C1 [Example 84, 6-(1-(1-(1-acryloylazetidine-3-carbonyl)piperidin-4-yl)-5-methyl-1H-pyrazol-4-yl)-4-methoxypyrazolo[1,5-a]pyridine-3-carbonitrile]
4 | 289 | 44 | 3 | 59 | 8 | 12 | C=CC(=O)N1CC(F)(C(=O)N2CCC(n3cc(-c4cc(OC)c5c(C#N)cnn5c4)cn3)CC2)C1 [Example 37, 6-(1-(1-(1-acryloyl-3-fluoroazetidine-3-carbonyl)piperidin-4-yl)-1H-pyrazol-4-yl)-4-methoxypyrazolo[1,5-a]pyridine-3-carbonitrile]
5 | 322 | 51 | 16 | 2350 | 520 | – | C=CC(=O)N1CC(C(=O)N2CCC(n3ncc(-c4cc(OC)c5c(C#N)cnn5c4)c3C)CC2)C1(C)C (stereo not shown) [Example 87, 6-(1-(1-(1-acryloyl-2,2-dimethylazetidine-3-carbonyl)piperidin-4-yl)-5-methyl-1H-pyrazol-4-yl)-4-methoxypyrazolo[1,5-a]pyridine-3-carbonitrile]
6 | 284 | 19 | 2 | 341 | 15 | – | C=CC(=O)N1CC(CN2CCC(n3ncc(-c4cc(OC)c5c(C#N)cnn5c4)c3C)CC2)(OC)C1 [Example 91, 6-(1-(1-((1-acryloyl-3-methoxyazetidin-3-yl)methyl)piperidin-4-yl)-5-methyl-1H-pyrazol-4-yl)-4-methoxypyrazolo[1,5-a]pyridine-3-carbonitrile]
7 | 236 | 53 | 8 | 541 | 22 | – | C=CC(=O)N1CC(CN2CCC(n3ncc(-c4cc(OC)c5c(C#N)cnn5c4)c3C)CC2)C1 [Example 89, 6-(1-(1-((1-acryloylazetidin-3-yl)methyl)piperidin-4-yl)-5-methyl-1H-pyrazol-4-yl)-4-methoxypyrazolo[1,5-a]pyridine-3-carbonitrile]
8 | 379 | 54 | 14 | 2240 | 43 | – | C=CC(=O)N1CC(C)(CN2CCC(n3ncc(-c4cc(OC)c5c(C#N)cnn5c4)c3C)CC2)C1 [Example 90, 6-(1-(1-((1-acryloyl-3-methylazetidin-3-yl)methyl)piperidin-4-yl)-5-methyl-1H-pyrazol-4-yl)-4-methoxypyrazolo[1,5-a]pyridine-3-carbonitrile]
9 | 342 | 12 | 9 | 2370 | 159 | – | C=CC(=O)N1CC(C)(C(=O)N2CCC(n3ncc(-c4cc(OC)c5c(C#N)cnn5c4)c3C)CC2)C1 [Example 86, 6-(1-(1-(1-acryloyl-3-methylazetidine-3-carbonyl)piperidin-4-yl)-5-methyl-1H-pyrazol-4-yl)-4-methoxypyrazolo[1,5-a]pyridine-3-carbonitrile]

Row | Structure (SMILES) | IC50 [1] [nM] | IC50 (dephosphorylated FGFR2) [nM] | IC50 [2] [nM] | IC50 [3] [nM] | IC50 [4] [nM] | IC50 [5] [nM]
10 | C=CC(=O)N1CC(C(=O)N2CC3CCC(C2)N3c2ccc(-c3cc(OC)c4c(C#N)cnn4c3)cn2)C1 [Example 51, 6-(6-(3-(1-acryloylazetidine-3-carbonyl)-3,8-diazabicyclo[3.2.1]octan-8-yl)pyridin-3-yl)-4-methoxypyrazolo[1,5-a]pyridine-3-carbonitrile] | 70 | 38 | 9 | 198 | 61 | –
11 | C=CC(=O)N1CC(C(=O)N2C3CC2CN(c2ccc(-c4cc(OC)c5c(C#N)cnn5c4)cn2)C3)C1 [Example 52, 6-(6-(6-(1-acryloylazetidine-3-carbonyl)-3,6-diazabicyclo[3.1.1]heptan-3-yl)pyridin-3-yl)-4-methoxypyrazolo[1,5-a]pyridine-3-carbonitrile] | 86 | 32 | 14 | 759 | 262 | –
12 | C=CC(=O)N1CC(C(=O)N2C3CCC2CN(c2ccc(-c4cc(OC)c5c(C#N)cnn5c4)cn2)C3)C1 [Example 50, 6-(6-(8-(1-acryloylazetidine-3-carbonyl)-3,8-diazabicyclo[3.2.1]octan-3-yl)pyridin-3-yl)-4-methoxypyrazolo[1,5-a]pyridine-3-carbonitrile] | 27 | 14 | 3 | 103 | 25 | –
